Values quoted from earlier work, collected in patent US20160193276A1 (Teva Pharmaceutical Industries, Ltd., priority 2012, published 2016).

Tests used:
[1] = test system: patients with relapsing multiple sclerosis; details: administered orally
mice = details: orally administered
MS patients = details: 20 mg/day subcutaneous (s.c.)
rats = details: orally administered

## L-glutamic acid polymer with L-alanine, L-lysine, L-tyrosine, acetate (salt) [glatiramer acetate]
[1]
  Relapse rate or other clinical MRI parameters of disease activity: did not affect
mice
  Induction of EAE: inhibited
MS patients
  Total number of enhancing lesions as measured by MRI: reduce
rats
  Induction of EAE: inhibited
